According to patent US20250051356A1, “RIFABUTIN ANALOGS FOR THE TREATMENT OF DISEASE” (priority 2021, published 2025):
Converted amounts (≈) assume the structure as drawn. Where two headings read alike, the source gives them in different places.

Assays:
Format in all cases: cell-based
[1] = tested on: A. baumannii (HUMC1 strain); test: MIC by broth microdilution against A. baumannii in RPMI + 10% FCS; conditions: Acinetobacter baumannii; HUMC1 strain; RPMI + 10% FCS; read-out: MIC A. baumannii
[2] = tested on: M. xenopi (ATCC 19250); test: MIC against M. xenopi in CAMHB + ADC; conditions: Mycobacterium xenopi, ATCC19250; ATCC 19250; CAMHB + ADC (5%); read-out: MIC M. xenopi
[3] = tested on: M. avium (ATCC 25291); test: MIC against M. avium in CAMHB + ADC; conditions: Mycobacterium avium, ATCC25291; ATCC 25291; CAMHB + ADC (5%); read-out: MIC M. avium
[4] = tested on: M. abscessus subsp. bolletii CCUG 50184; test: MIC against M. abscessus isolate in CAMHB; conditions: Mycobacteroides abscessus, CCUG50184
[5] = tested on: M. abscessus subsp. abscessus CCUG 71382; test: MIC against M. abscessus isolate in CAMHB; conditions: Mycobacteroides abscessus, CCUG71382
[6] = tested on: M. abscessus subsp. abscessus ATCC 19977; test: MIC against M. abscessus isolate in CAMHB; conditions: Mycobacteroides abscessus, ATCC19977
[7] = tested on: M. kansasii (ATCC 12478); test: MIC against M. kansasii in CAMHB + ADC; conditions: Mycobacterium kansasii, ATCC12478; ATCC 12478; CAMHB + ADC (5%); read-out: MIC M. kansasii
[8] = tested on: M. abscessus subsp. abscessus ATCC 19977; test: MIC against M. abscessus in Middlebrook 7H9 + ADC; conditions: Mycobacteroides abscessus
[9] = tested on: S. aureus (UAMS-1625 strain); test: MIC by broth microdilution against S. aureus; conditions: Staphylococcus aureus, read-out: MIC S. aureus
[10] = tested on: M. abscessus subsp. massiliense CCUG 48898; test: MIC against M. abscessus isolate in CAMHB; conditions: Mycobacteroides abscessus, CCUG48898
[11] = tested on: M. abscessus subsp. abscessus CCUG 71636; test: MIC against M. abscessus isolate in CAMHB
[12] = ATCC19977, ATCC 19977, 7H9 + ADC, read-out: MIC M. abscessus
[13] = Mycobacteroides abscessus, CCUG71636; read-out: M. abscessus MIC in CAMHB, abscessus CCUG 71636

SMILES | MIC [1] | MIC [2] | MIC [3] | MIC [4] | MIC [5] | MIC [6] | MIC [7] | MIC [8, 12] | MIC [9] | MIC [10] | MIC [11, 13] | MIC ([11]; Mycobacteroides abscessus, CCUG71636, read-out: M. abscessus MIC in CAMHB, abscessus CCUG 71636) | MIC ([8]; ATCC19977, read-out: MIC M. abscessus)
CO[C@H]1/C=C/OC2(C)Oc3c(C)c(O)c4c(c3C2=O)C2=NC3(CCN(CC(C)C)CC3)NC2=C(NC(=O)/C(C)=C\C=C\[C@H](C)[C@H](O)[C@@H](C)[C@@H](O)[C@@H](C)[C@H](OC(=O)CCCC(=O)N2CCC(N(C)c3ccccc3)CC2)[C@@H]1C)C4=O (stereo partly drawn) [Compound 85] | 0.03 µg/mL | 0.03 µg/mL | 0.25 µg/mL | 1 µg/mL (≈ 0.916 µM) | 1 µg/mL (≈ 0.916 µM) | 1 µg/mL (≈ 0.916 µM) | 0.008 µg/mL | 0.125 µg/mL | 0.5 µg/mL (≈ 0.458 µM) | 1 µg/mL (≈ 0.916 µM) | 0.5 µg/mL (≈ 0.458 µM) | – | –
CO[C@H]1/C=C/O[C@@]2(C)Oc3c(C)c(O)c4c(c3C2=O)C2=NC3(CCN(CC(C)C)CC3)NC2=C(NC(=O)/C(C)=C\C=C\[C@H](C)[C@H](O)[C@@H](C)[C@@H](O)[C@@H](C)[C@H](OC(=O)CC(=O)NC2CCN(Cc3ccccc3)CC2)[C@@H]1C)C4=O [Compound 90] | 0.016 µg/mL | 0.25 µg/mL | 0.125 µg/mL | 0.5 µg/mL (≈ 0.47 µM) | 1 µg/mL (≈ 0.94 µM) | 1 µg/mL (≈ 0.94 µM) | 0.008 µg/mL | 0.25 µg/mL | 0.125 µg/mL (≈ 0.118 µM) | 1 µg/mL (≈ 0.94 µM) | – | 0.125 µg/mL (≈ 0.118 µM) | –
CO[C@H]1/C=C/O[C@@]2(C)Oc3c(C)c(O)c4c(c3C2=O)C2=NC3(CCN(CC(C)C)CC3)NC2=C(NC(=O)/C(C)=C\C=C\[C@H](C)[C@H](O)[C@@H](C)[C@@H](O)[C@@H](C)[C@H](OC(=O)CC(=O)N2CCN(CC3CCCCC3)CC2)[C@@H]1C)C4=O [Compound 98] | 0.03 µg/mL | 0.016 µg/mL | 0.03 µg/mL | 0.25 µg/mL (≈ 0.237 µM) | 0.5 µg/mL (≈ 0.474 µM) | 0.25 µg/mL (≈ 0.237 µM) | 0.002 µg/mL | 0.125 µg/mL | 0.5 µg/mL (≈ 0.474 µM) | 0.5 µg/mL (≈ 0.474 µM) | 0.125 µg/mL (≈ 0.118 µM) | – | –
CO[C@H]1/C=C/O[C@@]2(C)Oc3c(C)c(O)c4c(c3C2=O)C2=NC3(CCN(CC(C)C)CC3)NC2=C(NC(=O)/C(C)=C\C=C\[C@H](C)[C@H](O)[C@@H](C)[C@@H](O)[C@@H](C)[C@H](OC(=O)CC(=O)N2CCN(Cc3ccccn3)CC2)[C@@H]1C)C4=O [Compound 118] | ≤ 0.002 µg/mL | 0.25 µg/mL | 2 µg/mL | – | – | – | 0.03 µg/mL | 0.25 µg/mL | 0.06 µg/mL (≈ 0.0571 µM) | – | – | – | –
CO[C@H]1/C=C/O[C@@]2(C)Oc3c(C)c(O)c4c(c3C2=O)C2=NC3(CCN(CC(C)C)CC3)NC2=C(NC(=O)/C(C)=C\C=C\[C@H](C)[C@H](O)[C@@H](C)[C@@H](O)[C@@H](C)[C@H](OC(=O)CC(=O)N2CCN(Cc3ccncc3)CC2)[C@@H]1C)C4=O [Compound 119] | ≤ 0.002 µg/mL | 0.25 µg/mL | 1 µg/mL | – | – | – | 0.008 µg/mL | 0.25 µg/mL | 0.016 µg/mL (≈ 0.0152 µM) | – | – | – | –
CO[C@H]1/C=C/O[C@@]2(C)Oc3c(C)c(O)c4c(c3C2=O)C2=NC3(CCN(CC(C)C)CC3)NC2=C(NC(=O)/C(C)=C\C=C\[C@H](C)[C@H](O)[C@@H](C)[C@@H](O)[C@@H](C)[C@H](OC(=O)CC(=O)N2CCCN(C)CC2)[C@@H]1C)C4=O [Compound 120] | 0.06 µg/mL | 1 µg/mL | 2 µg/mL | – | – | – | 0.25 µg/mL | 0.25 µg/mL | 0.06 µg/mL (≈ 0.0608 µM) | – | – | – | –
CO[C@H]1/C=C/O[C@@]2(C)Oc3c(C)c(O)c4c(c3C2=O)C2=NC3(CCN(CC(C)C)CC3)NC2=C(NC(=O)/C(C)=C\C=C\[C@H](C)[C@H](O)[C@@H](C)[C@@H](O)[C@@H](C)[C@H](OC(=O)CC(=O)N2CCCN(c3ccccn3)CC2)[C@@H]1C)C4=O [Compound 122] | ≤ 0.002 µg/mL | 0.03 µg/mL | 0.125 µg/mL | – | – | – | 0.002 µg/mL | 0.125 µg/mL | 0.06 µg/mL (≈ 0.0571 µM) | – | – | – | –
CO[C@H]1/C=C/O[C@@]2(C)Oc3c(C)c(O)c4c(c3C2=O)C2=NC3(CCN(CC(C)C)CC3)NC2=C(NC(=O)/C(C)=C\C=C\[C@H](C)[C@H](O)[C@@H](C)[C@@H](O)[C@@H](C)[C@H](OC(=O)CC(=O)N2CCCN(c3cccc(C(F)(F)F)n3)CC2)[C@@H]1C)C4=O [Compound 123] | 0.25 µg/mL | 0.125 µg/mL | 0.06 µg/mL | – | – | – | 0.008 µg/mL | 0.25 µg/mL | 0.5 µg/mL (≈ 0.447 µM) | – | – | – | –
CO[C@H]1/C=C/O[C@@]2(C)Oc3c(C)c(O)c4c(c3C2=O)C2=NC3(CCN(CC(C)C)CC3)NC2=C(NC(=O)/C(C)=C\C=C\[C@H](C)[C@H](O)[C@@H](C)[C@@H](O)[C@@H](C)[C@H](OC(=O)CC(=O)N2CCCN(c3ncccn3)CC2)[C@@H]1C)C4=O [Compound 124] | ≤ 0.002 µg/mL | 0.125 µg/mL | 0.125 µg/mL | – | – | – | 0.008 µg/mL | 0.125 µg/mL | 0.03 µg/mL (≈ 0.0285 µM) | – | – | – | –
CO[C@H]1/C=C/O[C@@]2(C)Oc3c(C)c(O)c4c(c3C2=O)C2=NC3(CCN(CC(C)C)CC3)NC2=C(NC(=O)/C(C)=C\C=C\[C@H](C)[C@H](O)[C@@H](C)[C@@H](O)[C@@H](C)[C@H](OC(=O)CC(=O)N2CCCN(c3nccc(C(F)(F)F)n3)CC2)[C@@H]1C)C4=O [Compound 125] | 0.25 µg/mL | 0.06 µg/mL | 0.03 µg/mL | – | – | – | 0.008 µg/mL | 0.125 µg/mL | 0.5 µg/mL (≈ 0.447 µM) | – | – | – | –
CO[C@H]1/C=C/O[C@@]2(C)Oc3c(C)c(O)c4c(c3C2=O)C2=NC3(CCN(CC(C)C)CC3)NC2=C(NC(=O)/C(C)=C\C=C\[C@H](C)[C@H](O)[C@@H](C)[C@@H](O)[C@@H](C)[C@H](OC(=O)CC(=O)N2CCCN(Cc3ccccc3)CC2)[C@@H]1C)C4=O [Compound 126] | 0.004 µg/mL | 0.03 µg/mL | 0.03 µg/mL | – | – | – | 0.004 µg/mL | – | 0.125 µg/mL (≈ 0.118 µM) | – | – | – | 0.125 µg/mL
CO[C@H]1/C=C/O[C@@]2(C)Oc3c(C)c(O)c4c(c3C2=O)C2=NC3(CCN(CC(C)C)CC3)NC2=C(NC(=O)/C(C)=C\C=C\[C@H](C)[C@H](O)[C@@H](C)[C@@H](O)[C@@H](C)[C@H](OC(=O)CC(=O)N2CCCN(Cc3ccc(F)cc3)CC2)[C@@H]1C)C4=O [Compound 127] | 0.06 µg/mL | 0.03 µg/mL | 0.125 µg/mL | – | – | – | 0.008 µg/mL | 0.125 µg/mL | 0.25 µg/mL (≈ 0.231 µM) | – | – | – | –
CO[C@H]1/C=C/O[C@@]2(C)Oc3c(C)c(O)c4c(c3C2=O)C2=NC3(CCN(CC(C)C)CC3)NC2=C(NC(=O)/C(C)=C\C=C\[C@H](C)[C@H](O)[C@@H](C)[C@@H](O)[C@@H](C)[C@H](OC(=O)CC(=O)N2CCCN(Cc3ccncc3)CC2)[C@@H]1C)C4=O [Compound 128] | ≤ 0.002 µg/mL | 0.25 µg/mL | 0.5 µg/mL | – | – | – | 0.03 µg/mL | 0.25 µg/mL | 0.06 µg/mL (≈ 0.0564 µM) | – | – | – | –
